Target: T1, PIP4K2C (Homo sapiens, UniProt Q8TBX8)
T1 sequence (Q8TBX8 1-421): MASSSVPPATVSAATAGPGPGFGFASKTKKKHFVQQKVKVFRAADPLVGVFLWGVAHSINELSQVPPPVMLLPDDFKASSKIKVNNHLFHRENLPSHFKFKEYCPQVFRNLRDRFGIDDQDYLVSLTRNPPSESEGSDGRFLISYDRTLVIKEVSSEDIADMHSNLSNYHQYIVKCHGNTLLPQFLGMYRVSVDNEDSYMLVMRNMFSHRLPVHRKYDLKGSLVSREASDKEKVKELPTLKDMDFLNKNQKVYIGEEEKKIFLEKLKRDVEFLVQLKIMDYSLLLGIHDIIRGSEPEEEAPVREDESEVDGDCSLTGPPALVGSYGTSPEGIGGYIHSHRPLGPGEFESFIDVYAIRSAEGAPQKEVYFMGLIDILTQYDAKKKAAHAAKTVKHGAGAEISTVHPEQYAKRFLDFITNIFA
Test: HiBiT PIP4K2C degradation assay in MOLT-4 cells (endogenous PIP4K2C C-terminally tagged with HiBiT)
Type: cell-based
Parameters: untagged in primary human PBMCs and monocyte-derived dendritic cells
Conditions: 6 hours of incubation time, rather than 24 hours; MOLT-4, top concentration 10 micromolar; read-out: HiBIT-degradation MOLT4 PIP4k2C DC50 (6 hours, marked *)
In short: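 MOLT-4 cells with endogenous PIP4K2C C-terminally HiBiT-tagged by CRISPR were treated with a 10-point, 3-fold dilution series from 10 micromolar, in duplicate, for 24 h or 6 h at 37 C. Remaining tagged protein read by HiBiT lytic luminescence; DC50 from Hill-equation fit.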

DC50 [nM] | Compound
< 500 | O=C1CC[C@@H](Nc2ccc(C3CCN([C@H]4CC[C@H](NC(=O)[C@H]5CC[C@H](Nc6ncc(F)c(-c7cccc(N8CCCOC8=O)n7)n6)CC5)CC4)CC3)c(F)c2)C(=O)N1 [Compound 519, (trans)-N-((trans)-4-(4-(4-((2,6-dioxopiperidin-3-yl)amino)-2-fluorophenyl)piperidin-1-yl)cyclohexyl)-4-((5-fluoro-4-(6-(2-oxo-1,3-oxazinan-3-yl)pyridin-2-yl)pyrimidin-2-yl)amino)cyclohexane-1-carboxamide]
< 500 | O=C1CCC(Nc2ccc(C3CCN([C@H]4CC[C@H](NC(=O)[C@H]5CC[C@H](Nc6ncc(F)c(-c7cccc(-n8ccccc8=O)n7)n6)CC5)CC4)CC3)c(F)c2)C(=O)N1 (stereo partly drawn) [Compound 520, trans-N-(trans-4-(4-(4-((2,6-dioxopiperidin-3-yl)amino)-2-fluorophenyl)piperidin-1-yl)cyclohexyl)-4-((5-fluoro-4-(2-oxo-2H-[1,2′-bipyridin]-6′-yl)pyrimidin-2-yl)amino)cyclohexane-1-carboxamide]
< 500 | O=C1CCC(Nc2ccc(N3CCC(N4CCC(NC(=O)[C@H]5CC[C@H](Nc6ncc(F)c(-c7cccc(N8CCCCC8=O)c7)n6)CC5)CC4)CC3)c(F)c2)C(=O)N1 (stereo partly drawn) [Compound 521, trans-N-(1′-(4-((2,6-dioxopiperidin-3-yl)amino)-2-fluorophenyl)-[1,4′-bipiperidin]-4-yl)-4-((5-fluoro-4-(3-(2-oxopiperidin-1-yl)phenyl)pyrimidin-2-yl)amino)cyclohexane-1-carboxamide]
< 500 | O=C1CCC(Nc2ccc(N3CCC(N4CCC(NC(=O)[C@H]5CC[C@H](Nc6ncc(F)c(-c7cccc(N8CCCOC8=O)c7)n6)CC5)CC4)CC3)c(F)c2)C(=O)N1 (stereo partly drawn) [Compound 522, trans-N-(1′-(4-((2,6-dioxopiperidin-3-yl)amino)-2-fluorophenyl)-[1,4′-bipiperidin]-4-yl)-4-((5-fluoro-4-(3-(2-oxo-1,3-oxazinan-3-yl)phenyl)pyrimidin-2-yl)amino)cyclohexane-1-carboxamide]
< 500 | O=C1CCC(Nc2ccc(N3CCC(N4CCC(C(=O)N[C@H]5CC[C@H](Nc6ncc(F)c(-c7cccc(N8CCCCC8)c7)n6)CC5)CC4)C(F)C3)c(F)c2)C(=O)N1 (stereo partly drawn) [Compound 523, 1′-(4-((2,6-dioxopiperidin-3-yl)amino)-2-fluorophenyl)-3′-fluoro-N-((1r,4r)-4-((5-fluoro-4-(3-(piperidin-1-yl)phenyl)pyrimidin-2-yl)amino)cyclohexyl)-[1,4′-bipiperidine]-4-carboxamide]
< 500 | O=C1CCC(Nc2ccc(N3CCC(N4CCC(C(=O)N[C@H]5CC[C@H](Nc6ncc(F)c(-c7cccc(N8CCCCC8=O)c7)n6)CC5)CC4)C(F)C3)c(F)c2)C(=O)N1 (stereo partly drawn) [Compound 524, 1′-(4-((2,6-dioxopiperidin-3-yl)amino)-2-fluorophenyl)-3′-fluoro-N-((1r,4r)-4-((5-fluoro-4-(3-(2-oxopiperidin-1-yl)phenyl)pyrimidin-2-yl)amino)cyclohexyl)-[1,4′-bipiperidine]-4-carboxamide]
< 500 | O=C1CCC(Nc2ccc(N3CCC(N4CCC(C(=O)N[C@H]5CC[C@H](Nc6ncc(F)c(-c7cccc(N8CCCOC8=O)c7)n6)CC5)CC4)C(F)C3)c(F)c2)C(=O)N1 (stereo partly drawn) [Compound 525, 1′-(4-((2,6-dioxopiperidin-3-yl)amino)-2-fluorophenyl)-3′-fluoro-N-((1r,4r)-4-((5-fluoro-4-(3-(2-oxo-1,3-oxazinan-3-yl)phenyl)pyrimidin-2-yl)amino)cyclohexyl)-[1,4′-bipiperidine]-4-carboxamide]
< 500 | O=C1CCC(Nc2ccc(N3CCC(N4CCC(C(=O)N[C@H]5CC[C@H](Nc6ncc(F)c(-c7cccc(N8CCOCC8=O)c7)n6)CC5)CC4)C(F)C3)c(F)c2)C(=O)N1 (stereo partly drawn) [Compound 526, 1′-(4-((2,6-dioxopiperidin-3-yl)amino)-2-fluorophenyl)-3′-fluoro-N-((1r,4r)-4-((5-fluoro-4-(3-(3-oxomorpholino)phenyl)pyrimidin-2-yl)amino)cyclohexyl)-[1,4′-bipiperidine]-4-carboxamide]
< 500 | O=C1CCC(Nc2ccc(N3CCN([C@H]4CC[C@H](NC(=O)[C@H]5CC[C@H](Nc6ncc(F)c(-c7cccc(N8CCCCC8)c7)n6)CC5)CC4)CC3)c(F)c2)C(=O)N1 (stereo partly drawn) [Compound 527, trans-(1r,4R)—N-((1r,4R)-4-(4-(4-((2,6-dioxopiperidin-3-yl)amino)-2-fluorophenyl)piperazin-1-yl)cyclohexyl)-4-((5-fluoro-4-(3-(piperidin-1-yl)phenyl)pyrimidin-2-yl)amino)cyclohexane-1-carboxamide]
< 500 | O=C1CCC(Nc2ccc(N3CCN(CC4(F)CCN(C(=O)[C@H]5CC[C@H](Nc6ncc(F)c(-c7cccc(-n8ccccc8=O)c7)n6)CC5)CC4)CC3)c(F)c2)C(=O)N1 (stereo partly drawn) [Compound 528, trans-3-((3-fluoro-4-(4-((4-fluoro-1-(4-((5-fluoro-4-(3-(2-oxopyridin-1(2H)-yl)phenyl)pyrimidin-2-yl)amino)cyclohexane-1-carbonyl)piperidin-4-yl)methyl)piperazin-1-yl)phenyl)amino)piperidine-2,6-dione]
< 500 | O=C1CCC(Nc2ccc(N3CCN(CC4(F)CCN(C(=O)[C@H]5CC[C@H](Nc6ncc(F)c(-c7cccc(C8CC8)c7)n6)CC5)CC4)CC3)c(F)c2)C(=O)N1 (stereo partly drawn) [Compound 529, trans-3-((4-(4-((1-((1r,4r)-4-((4-(3-cyclopropylphenyl)-5-fluoropyrimidin-2-yl)amino)cyclohexane-1-carbonyl)-4-fluoropiperidin-4-yl)methyl)piperazin-1-yl)-3-fluorophenyl)amino)piperidine-2,6-dione]
< 500 | O=C1CCC(Nc2ccc(N3CCN(CC4(F)CCN(C(=O)[C@H]5CC[C@H](Nc6ncc(F)c(-c7cccc(N8CCOCC8=O)c7)n6)CC5)CC4)CC3)c(F)c2)C(=O)N1 (stereo partly drawn) [Compound 530, trans-3-((3-fluoro-4-(4-((4-fluoro-1-(4-((5-fluoro-4-(3-(3-oxomorpholino)phenyl)pyrimidin-2-yl)amino)cyclohexane-1-carbonyl)piperidin-4-yl)methyl)piperazin-1-yl)phenyl)amino)piperidine-2,6-dione]
< 500 | O=C1CCC(Nc2ccc(N3CCC(N4CCC(NC(=O)[C@H]5CC[C@H](Nc6ncc(F)c(-c7cccc(N8CCCCC8)c7)n6)CC5)CC4)CC3)c(F)c2)C(=O)N1 (stereo partly drawn) [Compound 531, trans-N-(1′-(4-((2,6-dioxopiperidin-3-yl)amino)-2-fluorophenyl)-[1,4′-bipiperidin]-4-yl)-4-((5-fluoro-4-(3-(piperidin-1-yl)phenyl)pyrimidin-2-yl)amino)cyclohexane-1-carboxamide]
< 500 | O=C1CCC(Nc2ccc(N3CCC(N4CCC(NC(=O)[C@H]5CC[C@H](Nc6ncc(F)c(-c7cccc(N8CCOCC8=O)c7)n6)CC5)CC4)CC3)c(F)c2)C(=O)N1 (stereo partly drawn) [Compound 532, trans-N-(1′-(4-((2,6-dioxopiperidin-3-yl)amino)-2-fluorophenyl)-[1,4′-bipiperidin]-4-yl)-4-((5-fluoro-4-(3-(3-oxomorpholino)phenyl)pyrimidin-2-yl)amino)cyclohexane-1-carboxamide]
< 500 | O=C1CCC(Nc2ccc(N3CCC(N4CCC(NC(=O)[C@H]5CC[C@H](Nc6ncc(F)c(-c7cccc(C8CC8)c7)n6)CC5)CC4)CC3)c(F)c2)C(=O)N1 (stereo partly drawn) [Compound 533, trans-4-((4-(3-cyclopropylphenyl)-5-fluoropyrimidin-2-yl)amino)-N-(1′-(4-((2,6-dioxopiperidin-3-yl)amino)-2-fluorophenyl)-[1,4′-bipiperidin]-4-yl)cyclohexane-1-carboxamide]
< 500 | Cn1nc(C2CCC(=O)NC2=O)c2ccc(C3CCN(C[C@H]4CC[C@H](C(=O)N[C@H]5CC[C@H](Nc6ncc(F)c(-c7cccc(-n8ccccc8=O)c7)n6)CC5)CC4)CC3)cc21 (stereo partly drawn) [Compound 535, trans-(1r,4R)-4-((4-(3-(2,6-dioxopiperidin-3-yl)-1-methyl-1H-indazol-6-yl)piperidin-1-yl)methyl)-N-((1r,4R)-4-((5-fluoro-4-(3-(2-oxopyridin-1 (2H)-yl)phenyl)pyrimidin-2-yl)amino)cyclohexyl)cyclohexane-1-carboxamide]
< 500 | O=C1CCC(Nc2ccc(N3CCN([C@H]4CC[C@H](C(=O)N[C@H]5CC[C@H](Nc6ncc(F)c(-c7cccc(N8CCOCC8=O)c7)n6)CC5)CC4)CC3)c(F)c2)C(=O)N1 (stereo partly drawn) [Compound 536, trans-4-(4-(4-((2,6-dioxopiperidin-3-yl)amino)-2-fluorophenyl)piperazin-1-yl)-N-(trans-4-((5-fluoro-4-(3-(3-oxomorpholino)phenyl)pyrimidin-2-yl)amino)cyclohexyl)cyclohexane-1-carboxamide]
< 500 | O=C1CCC(Nc2ccc(N3CCN([C@H]4CC[C@H](C(=O)N[C@H]5CC[C@H](Nc6ncc(F)c(-c7cccc(C(=O)N8CC[C@H](O)C8)c7)n6)CC5)CC4)CC3)c(F)c2)C(=O)N1 (stereo partly drawn) [Compound 537, trans-4-(4-(4-((2,6-dioxopiperidin-3-yl)amino)-2-fluorophenyl)piperazin-1-yl)-N-(trans-4-((5-fluoro-4-(3-((S)-3-hydroxypyrrolidine-1-carbonyl)phenyl)pyrimidin-2-yl)amino)cyclohexyl)cyclohexane-1-carboxamide]

— patent publication US20260355196A1, “INHIBITORS AND DEGRADERS OF PIP4K PROTEIN” (Larkspur Biosciences, Inc., priority 2023, published 2026)
